The values that follow come from BindingDB's records for doi:10.1021/jm00122a003 (Tanabe Seiyaku, 1989).

The term IC50 denotes the concentration at which inhibition is half-maximal.

In one test the target is Angiotensin-converting enzyme (Sus scrofa). Nature of the test: Inhibitory activity on Angiotensin I converting enzyme (ACE) obtained from pig renal cortex and hippuryl-histidyl-leucine as substrate.
For `C[C@H](N)C(=O)N1C(=O)N(Cc2ccccc2)C[C@H]1C(=O)O`, the concentration for half-maximal inhibition (IC50) was 1500 nM.

As for `CCCCCCCC[C@H](N[C@@H](CC)C(=O)N1C(=O)N(Cc2ccccc2)C[C@H]1C(=O)O)C(=O)O`, the half-maximal inhibitory concentration (IC50) was 2.1 nM.

For another test the target is unchanged. The description is as above. This is another data set of the same source.
Molecule `CCCCN1C[C@@H](C(=O)O)N(C(=O)[C@H](C)N[C@@H](CCc2ccccc2)C(=O)O)C1=O` showed a half-maximal inhibitory concentration (IC50) of 6.7 nM.

Turning to `C[C@@H](N[C@@H](CCc1ccccc1)C(=O)O)C(=O)N1C(=O)N(Cc2ccccc2)C[C@H]1C(=O)O`, the IC50 came out at 2400 nM.

In turn, `CCCCCCCC[C@H](N[C@@H](C)C(=O)N1C(=O)N(Cc2ccccc2)C[C@H]1C(=O)O)C(=O)O` registered a 50% inhibitory concentration (IC50) of 1.5 nM.

`CC(C)CC[C@H](N[C@@H](C)C(=O)N1C(=O)N(Cc2ccccc2)C[C@H]1C(=O)O)C(=O)O` came in with an IC50 of 3.3 nM.

For `C[C@H](N[C@@H](CCc1ccccc1)C(=O)O)C(=O)N1C(=O)N(Cc2ccccc2)C[C@H]1C(=O)O`, the half-maximal inhibitory concentration (IC50) was found to be 1.7 nM.

Consider `CC(C)C[C@H](N[C@@H](C)C(=O)N1C(=O)N(Cc2ccccc2)C[C@H]1C(=O)O)C(=O)O`, for which the half-maximal inhibitory concentration (IC50) was 2.1 nM.

`CCCCCCCC[C@H](N[C@@H](C)C(=O)N1C(=O)N(Cc2ccccc2)C[C@H]1C(=O)O)C(=O)OCC` came in with an IC50 of 2200 nM.

In the case of `CCCCCCCC[C@H](N[C@@H](C)C(=O)N1C(=O)N(C)C[C@H]1C(=O)O)C(=O)OCC`, inhibition was half-maximal at 5100 nM (IC50).

`C[C@H](N[C@@H](Cc1ccccc1)C(=O)O)C(=O)N1C(=O)N(Cc2ccccc2)C[C@H]1C(=O)O`: inhibition was half-maximal at 11 nM (IC50).

`CC[C@H](N[C@@H](CCc1ccccc1)C(=O)O)C(=O)N1C(=O)N(Cc2ccccc2)C[C@H]1C(=O)O` had an IC50 of 2.3 nM.

The molecule `C[C@H](N[C@@H](CCc1ccccc1)C(=O)O)C(=O)N1C(=O)NC[C@H]1C(=O)O` had a concentration for half-maximal inhibition (IC50) of 3.5 nM.

Consider `CCCCCCCC[C@H](N[C@@H](CC)C(=O)N1C(=O)N(C)C[C@H]1C(=O)O)C(=O)O`, for which the 50% inhibitory concentration (IC50) is 2.4 nM.

As to `CCOC(=O)[C@H](CCc1ccccc1)N[C@@H](C)C(=O)N1C(=O)N(Cc2ccccc2)C[C@H]1C(=O)O`, half-maximal inhibition (IC50) was put at 7900 nM.
